The subject of assay [1] is T0 site-specifically modified rice of the Cas9-arm donor group (ALS W548L, S627I). Nature of the assay: Resistance to herbicide Bispyribac-sodium, spray test, ALS site-specifically modified rice. The following applies: homologous recombinant rice, ALS W548L and S627I; spray 100 μM; 36 days after spraying. It counts as in vivo, Nipponbare rice. Here is the method: (§1) The wild-type rice, and the T0 site-specifically modified rice of the Cas9-arm donor group with successful homologous recombination at the codons of both the 548th and 627th amino acids of ALS as obtained in step I were sprayed with Bispyribac-sodium in a concentration of 100 μM, and 30-50 days thereafter, the growth states of the plants were observed.

A further assay deals with wild-type rice. Nature of the assay: Resistance to herbicide Bispyribac-sodium, spray test, wild-type rice. It counts as in vivo, Nipponbare rice. The following applies: spray 100 μM, 36 days after spraying. Here is the method: as §1

Regarding `COc1cc(OC)nc(Oc2cccc(Oc3nc(OC)cc(OC)n3)c2C(=O)O)n1` [Bispyribac-sodium], the results for the “growth state of the plants after spraying” value (in assay [1]; in the assay with wild-type rice) were “normal growth” and “withered”, respectively.

These data come from US10988774B2, “System for site-specific modification of ALS gene using CRISPR-Cas9 system for production of herbicide-resistant rice and use of same” (Institute of Crop Sciences, Chinese Academy of Agricultural …, priority 2015, dated 2021).
